Laboratory results taken from patent US20240076297A1, “ADENOSINE A2A AND A2B RECEPTOR DUAL ANTAGONISTS FOR IMMUNO-ONCOLOGY” (Merck Sharp & Dohme LLC, priority 2020, published 2024).

Assays:
[1] = molecular target: human A2B adenosine receptor (Homo sapiens (Human), UniProt P29275); test: A2B binding affinity, radioligand filtration binding assay; details: HEK293 membranes expressing human A2B, tritiated proprietary antagonist
From the text: (§1) Method (A) describes the procedure used to measure A2A binding affinity using radioligand binding. Method (B) describes the procedure used to measure A2A binding affinity using SPA technology. The method used to measure A2B binding affinity is also described below. The method used to determine the A2A IC50 value reported for each compound in the table is indicated next to the reported value. The A2B IC50 value measured using the A2B binding affinity assay is shown in the table next to the compound under the corresponding A2A value.
Measurement of A2B Binding Affinity
The reported affinity of the compounds of the invention for the human A2B adenosine receptor was determined experimentally using a radioligand filtration binding assay. This assay measures the amount of binding of a tritiated proprietary A2B receptor antagonist, in the presence and absence of a compound of the invention, to membranes made from HEK293 cells recombinantly expressing the human A2B adenosine receptor (Perkin Elmer, Cat. No. ES-013-C).
148 μL (135 μg/mL) membranes and 2 μL test compounds were transferred to individual wells of a 96-well polypropylene assay plate and incubated for 15 to 30 min at room temperature with agitation. Tritiated radioligand was diluted to a concentration of 14 nM in assay buffer (phosphate buffered saline without Magnesium and Calcium, pH 7.4; GE Healthcare Life Sciences, Cat. No. SH30256.01) and then 50 μL of the solution were transferred to each well of the assay plate. To define total and non-specific binding, wells containing 1% DMSO and 20 μM N-ethylcarboxamidoadenosine (Tocris Bioscience, Cat. No. 1691) respectively, were also included. The wells of the assay plate were incubated at room temperature for 60 min with agitation, then filtered using a FilterMate Harvester® (Perkin Elmer) or similar equipment through a UniFilter-96@ PEI coated plate (Perkin Elmer Cat. No. 6005274 or 6005277). Filtering was achieved by aspirating the contents of the assay plate for 5 sec, then washing and aspirating the contents three times with ice-cooled wash buffer (assay buffer supplemented with 0.0025% Brij58) and allowing the vacuum manifold to dry the plate for 30 sec. The filter plate was incubated for at least 1 h at 55° C. and allowed to dry. The bottom of the filter plate was then sealed with backing tape. 40 μL Ultima Gold™ (Perkin Elmer, Cat. No. 6013329) was added to each well of the filter plate and the top of the plate was sealed with TopSeal-A PLUS® clear plate seal (Perkin Elmer, Cat. No. 6050185). The plates were then incubated for at least 20 min, and then the amount of radioactivity remaining in each well was determined using a TopCount® (Perkin Elmer) scintillation counter. After normalization to total and non-specific binding, the percent effect at each compound concentration was calculated. The plot of percent effect versus the log of compound concentration was analyzed electronically using a 4-parameter logistic fit based on the Levenberg-Marquardt algorithm to generate IC50 values.

[2] = molecular target: human A2A adenosine receptor (Homo sapiens (Human), UniProt P29274); test: A2A binding affinity using radioligand binding, Method (A); details: Method (A): filtration radioligand binding, [3H] SCH58261, membranes expressing human A2A
From the text: as §1
The A2A receptor affinity binding assay measured the amount of binding of a tritiated ligand with high affinity for the A2A adenosine receptor to membranes made from HEK293 or CHO cells recombinantly expressing the human A2A adenosine receptor, in the presence of varying concentrations of a compound of the invention. The data were generated using either filtration binding or a homogenous scintillation proximity assay (SPA).
Method (A): Measurement of A2A Binding Affinity Using Radioligand Binding
148 μL (5 μg/mL) membranes (Perkin Elmer, Cat. No. RBHA2aM400UA) and 2 μL compounds of the invention to be tested (test compound) were transferred to individual wells of a 96-well polypropylene assay plate and incubated for 15 to 30 min at room temperature. [^3H] SCH58261 ((7-(2-phenylethyl)-5-amino-2-(2-furyl)-pyrazolo-[4,3-e]-1,2,4-triazolo[1,5-c]pyrimidine)) was diluted in assay buffer (50 mM Tris pH 7.4, 10 mM MgCl2, 0.005% Tween20) to a concentration of 4 nM and 50 μL transferred to each well of the assay plate. To define total and non-specific binding, wells containing 1% DMSO and 1 μM ZM241385 (Tocris Bioscience, Cat. No. 1036) respectively, were also included. The assay plate was incubated at room temperature for 60 min with agitation. Using a FilterMate Harvester® (Perkin Elmer), the contents of the assay plate were filtered through a UniFilter-96® PEI coated plate (Perkin Elmer Cat. No. 6005274 or 6005277). Filtering was achieved by aspirating the contents of the assay plate for 5 sec, then washing and aspirating the contents three times with ice-cooled wash buffer (50 mM Tris-HCl pH 7.4, 150 mM NaCl) and allowing the vacuum manifold to dry the plate for 30 sec. The filter plate was incubated for at least 1 h at 55° C. and allowed to dry. The bottom of the filter plate was sealed with backing tape. 40 μL Ultima Gold™ (Perkin Elmer, Cat. No. 6013329) was added to each well of the filter plate and the top of the plate was sealed with TopSeal-A PLUS® clear plate seal (Perkin Elmer, Cat. No. 6050185). The plate was incubated for at least 20 min, and then the amount of radioactivity remaining in each well was determined using a TopCount® (Perkin Elmer) scintillation counter. After normalization to total and non-specific binding, the percent effect at each compound concentration was calculated. The plot of percent effect versus the log of compound concentration was analyzed electronically using a 4-parameter logistic fit based on the Levenberg-Marquardt algorithm to generate IC50 values.

human A2A adenosine receptor, sequence (P29274 whole entry): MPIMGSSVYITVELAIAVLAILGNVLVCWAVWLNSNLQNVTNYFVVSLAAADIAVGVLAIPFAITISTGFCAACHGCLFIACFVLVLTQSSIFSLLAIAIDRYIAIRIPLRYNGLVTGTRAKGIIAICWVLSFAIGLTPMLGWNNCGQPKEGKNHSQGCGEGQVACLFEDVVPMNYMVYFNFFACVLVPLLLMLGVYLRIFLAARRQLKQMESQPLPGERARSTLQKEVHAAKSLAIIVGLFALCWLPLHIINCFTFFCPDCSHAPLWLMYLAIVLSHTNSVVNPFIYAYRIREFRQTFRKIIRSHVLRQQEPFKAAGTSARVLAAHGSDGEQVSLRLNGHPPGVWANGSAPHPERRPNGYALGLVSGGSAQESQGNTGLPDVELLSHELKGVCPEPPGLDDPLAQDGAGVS
human A2B adenosine receptor, sequence (P29275 whole entry): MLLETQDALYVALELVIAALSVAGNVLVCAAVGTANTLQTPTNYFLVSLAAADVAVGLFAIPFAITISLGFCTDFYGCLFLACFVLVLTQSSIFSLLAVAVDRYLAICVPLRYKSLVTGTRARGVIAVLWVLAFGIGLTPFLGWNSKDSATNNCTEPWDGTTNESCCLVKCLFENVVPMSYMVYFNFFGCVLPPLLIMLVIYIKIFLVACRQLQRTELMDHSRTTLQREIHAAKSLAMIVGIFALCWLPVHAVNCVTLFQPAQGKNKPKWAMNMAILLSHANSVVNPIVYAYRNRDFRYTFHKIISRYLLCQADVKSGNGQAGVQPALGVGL

IC50 ([1]; value given with marker (A)) [nM] | IC50 [2] [nM] | IC50 ([1]; value given with marker (B)) [nM] | SMILES
666 | 28.8 |  | COc1cc(F)cc2c1nc(N)n1nc(CCS(=O)(=O)CC(C)C)nc21 [Example 13.11, 9-fluoro-2-(2-(isobutylsulfonyl)ethyl)-7-methoxy-[1,2,4]triazolo[1,5-c]quinazolin-5-amine]
220 | 9.8 |  | CCS(=O)(=O)CCc1nc2c3cc(F)cc(OC)c3nc(N)n2n1 [Example 13.15, 2-(2-(ethylsulfonyl)ethyl)-9-fluoro-7-methoxy-[1,2,4]triazolo[1,5-c]quinazolin-5-amine]
61.4 | 0.7 |  | COc1cc2nc(N)n3nc(CC(C)S(C)(=O)=O)nc3c2cc1F (single isomer, unassigned) [Example 13.2A, (S or R)-9-fluoro-8-methoxy-2-(2-(methylsulfonyl)propyl)-[1,2,4]triazolo[1,5-c]quinazolin-5-amine]
 | 4.2 | 3780 | COc1cccc2c1nc(N)n1nc(CS(=O)(=O)c3ccccc3)nc21 [Example 6.6, 7-methoxy-2-((phenylsulfonyl)methyl)-[1,2,4]triazolo-[1,5-c]quinazolin-5-amine]
197 | 9.1 |  | COc1cc2nc(N)n3nc(CCS(=O)(=O)C4CC4)nc3c2cc1F [Example 13.14, 2-(2-(cyclopropylsulfonyl)ethyl)-9-fluoro-8-methoxy-[1,2,4]triazolo[1,5-c]quinazolin-5-amine]
 | 15.1 | 209 | COc1cccc2c1nc(N)n1nc(C[C@@H](C)O)nc21 [Example 18.4, (R)-1-(5-amino-7-methoxy-[1,2,4]triazolo[1,5-c]quinazolin-2-yl)propan-2-ol]
12 | 0.8 |  | COc1cccc2c1nc(N)n1nc(CCC3CCc4c(nnn4C(C)C)C3)nc21 (single isomer, unassigned) [Example 5.2B, (R or S)-2-(2-(1-isopropyl-4,5,6,7-tetrahydro-1H-benzo[d][1,2,3]triazol-5-yl)ethyl)-7-methoxy-[1,2,4]triazolo[1,5-c]quinazolin-5-amine]
9.1 | 0.2 |  | COc1cc(F)cc2c1nc(N)n1nc(COCc3ccc(C(C)(C)O)cc3)nc21 [Example 4.14, 2-(4-(((5-amino-9-fluoro-7-methoxy-[1,2,4]triazolo[1,5-c]quinazolin-2-yl)methoxy)methyl)phenyl)propan-2-ol]
0.9 | 0.3 |  | COc1cc(F)cc2c1nc(N)n1nc(COCc3ccc(C(O)(C(F)(F)F)C(F)(F)F)cc3)nc21 [Example 4.16, 2-(4-(((5-amino-9-fluoro-7-methoxy-[1,2,4]triazolo[1,5-c]quinazolin-2-yl)methoxy)methyl)phenyl)-1,1,1,3,3,3-hexafluoropropan-2-ol]
 | 13.9 | 307 | CC[C@@H](O)Cc1nc2c3cccc(OC)c3nc(N)n2n1 [Example 17.2, (R)-1-(5-amino-7-methoxy-[1,2,4]triazolo[1,5-c]quinazolin-2-yl)butan-2-ol]
113 | 107 |  | COc1cc2nc(N)n3nc(CCS(N)(=O)=O)nc3c2cc1F [Example 6.5, 2-(5-amino-9-fluoro-8-methoxy-[1,2,4]triazolo-[1,5-c]quinazolin-2-yl)ethane-1-sulfonamide]
139 | 3.1 |  | COc1cc(F)cc2c1nc(N)n1nc(CC3CC3c3ccc(C(C)(C)N)cc3)nc21 (single isomer, unassigned) [Example 8.4B, 2-(((1R,2S or 1S,2R)-2-(4-(2-aminopropan-2-yl)phenyl)-cyclopropyl)methyl)-9-fluoro-7-methoxy-[1,2,4]triazolo-[1,5-c]quinazolin-5-amine]
1900 | 222 |  | COc1cc2nc(N)n3nc(CCS(C)(=O)=O)nc3c2cc1F [Example 6.4, 9-fluoro-8-methoxy-2-(2-(methylsulfonyl)ethyl)-[1,2,4]triazolo[1,5-c]quinazolin-5-amine]
9.8 | 0.8 |  | COc1cc(F)cc2c1nc(N)n1nc(CCS(=O)(=O)C3CC3)nc21 [Example 13.10, 2-(2-(cyclopropylsulfonyl)ethyl)-9-fluoro-7-methoxy-[1,2,4]triazolo[1,5-c]quinazolin-5-amine]
112 | 1.1 |  | COc1cc(F)cc2c1nc(N)n1nc(CCCS(=O)(=O)C3CC3)nc21 [Example 13.18, 2-(3-(cyclopropylsulfonyl)propyl)-9-fluoro-7-methoxy-[1,2,4]triazolo[1,5-c]quinazolin-5-amine]
410 | 28.1 |  | COc1cccc2c1nc(N)n1nc(CCS(C)(=O)=O)nc21 [Example 13.17, 7-methoxy-2-(2-(methylsulfonyl)ethyl)-[1,2,4]triazolo[1,5-c]quinazolin-5-amine]
 | 30.8 | 128 | COc1cccc2c1nc(N)n1nc(CC(C)(C)O)nc21 [Example 18.2, 1-(5-amino-7-methoxy-[1,2,4]triazolo[1,5-c]quinazolin-2-yl)-2-methylpropan-2-ol]
455 | 4.8 |  | COc1cc2nc(N)n3nc(CCS(=O)(=O)c4ccccc4)nc3c2cc1F [Example 6.2, 9-fluoro-8-methoxy-2-(2-(phenylsulfonyl)ethyl)-[1,2,4]triazolo[1,5-c]quinazolin-5-amine]
535 | 8.2 |  | COc1cccc2c1nc(N)n1nc(CCS(C)(=O)=O)nc21 [Example 6.3, 7-methoxy-2-(2-(methylsulfonyl)ethyl)-[1,2,4]-triazolo[1,5-c]quinazolin-5-amine]
1040 | 57.7 |  | COc1cc2nc(N)n3nc(CCS(=O)(=O)c4ccc(F)cc4)nc3c2cc1F [Example 13.13, 9-fluoro-2-(2-((4-fluorophenyl)sulfonyl)ethyl)-8-methoxy-[1,2,4]triazolo[1,5-c]quinazolin-5-amine]
10 | 0.2 |  | COc1cccc2c1nc(N)n1nc(COCc3ccc(C(C)(C)O)cc3)nc21 [Example 4.15, 2-(4-(((5-amino-7-methoxy-[1,2,4]triazolo[1,5-c]quinazolin-2-yl)methoxy)methyl)phenyl)propan-2-ol]
973 | 0.3 |  | COc1cccc2c1nc(N)n1nc(CCS(=O)(=O)c3ccc(F)cc3)nc21 [Example 13.4, 2-(2-((4-fluorophenyl)sulfonyl)ethyl)-7-methoxy-[1,2,4]triazolo[1,5-c]quinazolin-5-amine]
